How the values were obtained:
Mus musculus [1] = assay: Antidepressant-like activity in Mus musculus albino (mouse) assessed as latency for first immobilization at 100 mg/kg, ip measured after 30 min by forced swim test (reference value: 68 +/- 13 sec); type: functional; conditions: route intraperitoneal
Mus musculus [2] = assay: Toxicity in Mus musculus albino (mouse) assessed as increase in horizontal activity at 100 mg/kg, ip; type: organism-based; parameters: dose 100 mg/kg, route intraperitoneal; conditions: in vivo
Mus musculus [3] = assay: Antidepressant-like activity in Mus musculus albino (mouse) assessed as immobility time at 100 mg/kg, ip measured after 30 min by forced swim test (reference value: 167 +/- 17 sec); type: functional; conditions: route intraperitoneal
Mus musculus [4] = assay: Toxicity in Mus musculus albino (mouse) assessed as increase in total distance travelled at 100 mg/kg, ip; type: organism-based; parameters: dose 100 mg/kg, route intraperitoneal; conditions: in vivo
Mus musculus [5] = assay: Toxicity in Mus musculus albino (mouse) assessed as resting time at 100 mg/kg, ip; type: organism-based; parameters: dose 100 mg/kg, route intraperitoneal; conditions: in vivo
Mus musculus [6] = assay: Toxicity in Mus musculus albino (mouse) assessed as decrease in total distance travelled at 100 mg/kg, ip; type: organism-based; parameters: dose 100 mg/kg, route intraperitoneal; conditions: in vivo
Mus musculus [7] = assay: Toxicity in Mus musculus albino (mouse) assessed as decrease in horizontal activity at 100 mg/kg, ip; type: organism-based; parameters: dose 100 mg/kg, route intraperitoneal; conditions: in vivo
Mus musculus [8] = assay: Toxicity in Mus musculus albino (mouse) assessed as resting time at 10 mg/kg, ip; type: organism-based; parameters: dose 10 mg/kg, route intraperitoneal; conditions: in vivo
Mus musculus [9] = assay: Toxicity in Mus musculus albino (mouse) assessed as increase in horizontal activity at 10 mg/kg, ip; type: organism-based; parameters: dose 10 mg/kg, route intraperitoneal; conditions: in vivo
Mus musculus [10] = assay: Toxicity in Mus musculus albino (mouse) assessed as increase in total distance travelled at 10 mg/kg, ip; type: organism-based; parameters: dose 10 mg/kg, route intraperitoneal; conditions: in vivo

O=C(CSC(=S)N1CCOCC1)N1N=C(c2cccs2)CC1c1ccccc1 (stereo not drawn)
Time (Mus musculus [1]): 73 s | Activity (Mus musculus [2]): Toxic | Time (Mus musculus [3]): 148 s | Activity (Mus musculus [4]): Toxic | Activity (Mus musculus [5]): 77%

O=C(CSC(=S)N1CCSCC1)N1N=C(c2cccs2)CC1c1ccccc1 (stereo not drawn)
Time (Mus musculus [1]): 72 s | Activity (Mus musculus [2]): Toxic | Time (Mus musculus [3]): 84 s | Activity (Mus musculus [4]): Toxic | Activity (Mus musculus [5]): 73%

Cc1ccc(C2CC(c3cccs3)=NN2C(=O)CSC(=S)N2CCOCC2)cc1 (stereo not drawn)
Time (Mus musculus [1]): 99 s | Activity (Mus musculus [6]): Toxic | Activity (Mus musculus [7]): Toxic | Time (Mus musculus [3]): 129 s | Activity (Mus musculus [5]): 89%

Cc1ccc(C2CC(c3cccs3)=NN2C(=O)CSC(=S)N2CCSCC2)cc1 (stereo not drawn)
Time (Mus musculus [1]): 60 s | Time (Mus musculus [3]): 113 s | Activity (Mus musculus [5]): 81%

COc1ccc(C2CC(c3cccs3)=NN2C(=O)CSC(=S)N2CCOCC2)cc1 (stereo not drawn)
Time (Mus musculus [1]): 94 s | Time (Mus musculus [3]): 139 s | Activity (Mus musculus [5]): 84%

COc1ccc(C2CC(c3cccs3)=NN2C(=O)CSC(=S)N2CCSCC2)cc1 (stereo not drawn)
Time (Mus musculus [1]): 80 s | Activity (Mus musculus [2]): Toxic | Time (Mus musculus [3]): 134 s | Activity (Mus musculus [4]): Toxic | Activity (Mus musculus [5]): 72%

O=C(CSC(=S)N1CCOCC1)N1N=C(c2cccs2)CC1c1ccc(Cl)cc1 (stereo not drawn)
Time (Mus musculus [1]): 36 s | Time (Mus musculus [3]): 112 s | Activity (Mus musculus [5]): 80%

O=C(CSC(=S)N1CCSCC1)N1N=C(c2cccs2)CC1c1ccc(Cl)cc1 (stereo not drawn)
Time (Mus musculus [1]): 77 s | Activity (Mus musculus [6]): Toxic | Activity (Mus musculus [7]): Toxic | Time (Mus musculus [3]): 136 s | Activity (Mus musculus [5]): 80%

N[C@@H]1C[C@H]1c1ccccc1.N[C@H]1C[C@@H]1c1ccccc1 (racemic) [TRANYLCYPROMINE]
Activity (Mus musculus [8]): 89%

CN(C)CCCN1c2ccccc2CCc2ccc(Cl)cc21 [CLOMIPRAMINE]
Activity (Mus musculus [9]): Toxic | Activity (Mus musculus [8]): 73% | Activity (Mus musculus [10]): Toxic
